Laboratory results as given in patent publication US10253002B2, “Compounds and methods of treating infections” (Neoculi Pty Ltd., priority 2013, dated 2019).

How the values were obtained:
[1] = system: cell wall synthesis in S. aureus ATCC 29213; test: Macromolecular synthesis assay: cell wall synthesis ([14C]N-acetylglucosamine); type: cell-based, Staphylococcus aureus; details: positive control; 8 fold the MIC (2 μg/mL)
Method: Cells were grown at 35° C. overnight on Trypticase Soy agar. A colony from the plate was used to inoculate 10 ml of Mueller Hinton broth II (MHBII), and the culture was grown to early exponential growth phase (OD600==0.2 to 0.3) while incubating in a shaker at 35° C. and 200 rpm.
Bacterial cells in early exponential growth phase were transferred to M9 minimal medium and added to 1.5 mL eppendorf tubes (100 μL/tube) containing various concentrations of test compound or control antibiotics (5 μL) at 20× the final concentration in 100% DMSO as described above. Following a 5 min incubation at 37° C., [^14C]N-acetylglucosamine (0.4 μCi/reaction) was added to each tube and incubated for 45 min in a 37° C. heating block. Reactions were stopped through the addition of 100 μL of 8% SDS to each tube. Reactions were then heated at 95° C. for 30 min in a heating block, cooled, briefly centrifuged, and spotted onto pre-wet HA filters ([…]). After washing three times with 5 mL of 0.1% SDS, the filters were rinsed two times with 5 ml of deionized water, allowed to dry, and then counted using a Beckman LS3801 liquid scintillation counter.

[2] = system: Staphylococcus pseudintermedius isolates (MSSP and MRSP); test: Disk diffusion and Epsilometer susceptibility testing, Example 6; type: cell-based; details: 13 MRSP isolates
S. pneumoniae isolates = test: Disk diffusion susceptibility (CLSI/EUCAST), Example 5; type: cell-based, Streptococcus pneumoniae
Summary of the method: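 Susceptibility to 12 antimicrobials was categorised (S/I/R) using CLSI breakpoints from zones of complete inhibition, read thrice to the nearest millimetre with the mode taken. Incubation was 16–24 h, 37 °C, 5% CO2.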

[3] = system: S. aureus isolates (HA-MRSA, CA-MRSA, methicillin-susceptible staphylococci); test: Kirby-Bauer disc diffusion resistotyping, Example 4; type: cell-based, Staphylococcus aureus; details: for Total isolates resistant (Kirby-Bauer disc diffusion): all isolates (n = 30)
Summary of the method: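 CLSI Kirby-Bauer disc diffusion on Mueller-Hinton agar. Overnight SBA cultures (37 °C) were suspended in saline and adjusted to 0.5 McFarland before spreading. Antibiotic discs were read after 24 h at 37 °C.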

`CN[C@H](CC(C)C)C(=O)N[C@H]1C(=O)N[C@@H](CC(N)=O)C(=O)N[C@H]2C(=O)N[C@H]3C(=O)N[C@H](C(=O)N[C@H](C(=O)O)c4cc(O)cc(O)c4-c4cc3ccc4O)[C@H](O)c3ccc(c(Cl)c3)Oc3cc2cc(c3O[C@@H]2O[C@H](CO)[C@@H](O)[C@H](O)[C@H]2O[C@H]2C[C@](C)(N)[C@H](O)[C@H](C)O2)Oc2ccc(cc2Cl)[C@H]1O` [Vancomycin] was tested, and the “inhibition of cell wall synthesis” value [1] was 96%, the MRSP isolates susceptible [2] was 77% and the “disk diffusion zone diameter” value (S. pneumoniae isolates; A66.1) was 25 mm. For the same compound, the “disk diffusion zone diameter” value (S. pneumoniae isolates; D39) was 22 mm, the “disk diffusion zone diameter” value (S. pneumoniae isolates; EF3030) was 22 mm and the “disk diffusion zone diameter” value (S. pneumoniae isolates; L82016) was 23 mm. The “disk diffusion zone diameter” value (S. pneumoniae isolates; P9) was 21 mm, the “disk diffusion zone diameter” value (S. pneumoniae isolates; P21) was 21 mm and the “disk diffusion zone diameter” value (S. pneumoniae isolates; TIGR4) was 22 mm. The “disk diffusion zone diameter” value (S. pneumoniae isolates; WCH16) was 23 mm, the “disk diffusion zone diameter” value (S. pneumoniae isolates; WCH43) was 20 mm and the “disk diffusion zone diameter” value (S. pneumoniae isolates; WCH46) was 21 mm. The “disk diffusion zone diameter” value (S. pneumoniae isolates; WCH57) was 28 mm, the “disk diffusion zone diameter” value (S. pneumoniae isolates; WCH77) was 24 mm and the “disk diffusion zone diameter” value (S. pneumoniae isolates; WCH86) was 22 mm. For the same compound, the “disk diffusion zone diameter” value (S. pneumoniae isolates; WCH89) was 25 mm, the “disk diffusion zone diameter” value (S. pneumoniae isolates; WCH92) was 22 mm and the “disk diffusion zone diameter” value (S. pneumoniae isolates; WCH137) was 24 mm. For the same compound, the “disk diffusion zone diameter” value (S. pneumoniae isolates; WCH158) was 22 mm, the “disk diffusion zone diameter” value (S. pneumoniae isolates; WCH184) was 23 mm and the “disk diffusion zone diameter” value (S. pneumoniae isolates; WCH211) was 23 mm. For the same compound, the “disk diffusion zone diameter” value (S. pneumoniae isolates; WU2) was 21 mm, the “isolates resistant (Kirby-Bauer disc diffusion)” value ([3]; CA-MRSA (n = 10)) was 0.00% and the “isolates resistant (Kirby-Bauer disc diffusion)” value ([3]; HA-MRSA (n = 10)) was 0.00%. For the same compound, the “isolates resistant (Kirby-Bauer disc diffusion)” value ([3]; Methicillin-susceptible staphylococci (n = 10)) was 0.00%, the “Total isolates resistant (Kirby-Bauer disc diffusion)” value [3] was 0.00% and the “Total isolates resistant (Kirby-Bauer disc diffusion)” value ([3]; listed as vancomycin) was “None of the isolates tested were vancomycin resistant”.
